Our source for the IC50 and inhibition values is US10689362B2, “Quinoxaline compounds as type III receptor tyrosine kinase inhibitors” (Development Center for Biotechnology, priority 2016, dated 2020).

In assay [1] the test system is CSF-1-dependent M-NFS-60 mouse myeloid leukemia cell. Kind of assay: M-NFS-60 cell proliferation assay (CellTiter-96). The assay is classed as cell-based. Particulars: Cytotoxicity, M-NFS-60 cells, 72 hours. Summed up: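 CSF-1-dependent M-NFS-60 cells seeded at 2000 cells/well, settled overnight at 37 °C, 5% CO2, then exposed to increasing compound concentrations for 72 h. Viability read by CellTiter 96 AQueous One reagent (4 h) at 490 nm absorbance.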

Assay [2] concerns the target c-KIT kinase (Homo sapiens (Human), UniProt P10721). Description: c-KIT kinase assay (radiometric). The assay is classed as biochemical. Particulars: class symbol. In short, it runs like this: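 Recombinant c-Kit (20 ng) with 2 μg Poly-(Glu4:Tyr1) in MOPS pH 7.0 buffer with MgCl2/MnCl2, 10 μM ATP plus [^33P]-ATP, 4% DMSO final, 60 min at 30° C. Stopped with phosphoric acid, filter-captured and scintillation counted; IC50 from curve fit.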

The test system of assay [3] is MV4-11 human acute myeloid leukemia cell with FLT3-ITD mutation. Description: MV4-11 cell proliferation assay (CellTiter-96). The assay is classed as cell-based. The note with it: Cytotoxicity, MV4-11 cells, 72 hours. In short, it runs like this:
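MV4-11 cells (FLT3-ITD, FLT3-dependent growth) seeded at 6500 cells/well, incubated overnight at 37° C., 5% CO2, then exposed to increasing compound concentrations for 72 hours. Viability read by CellTiter96 AQueous One reagent (4 hours), absorbance at 490 nm.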

Assay [4] concerns the target PDGFRβ kinase (Homo sapiens (Human), UniProt P09619). Description: PDGFRβ kinase assay (radiometric). The assay is classed as biochemical. Summed up:
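Radiometric assay: recombinant PDGFRβ with poly(Glu4:Tyr1) in MOPS pH 7.0 buffer containing Mg2+/Mn2+, 10 μM ATP plus [33P]-ATP, and compound at 4% DMSO final. Incubated 60 min at 30° C, stopped with phosphoric acid, filter-captured and scintillation-counted. IC50 from curve fitting.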

Assay [5] has as its target FLT3 kinase (Homo sapiens (Human), UniProt P36888). Kind of assay: FLT3 kinase assay (radiometric). The assay is classed as biochemical. Particulars: bound. Summed up: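 Recombinant FLT3 (5 ng) phosphorylating poly(Glu4:Tyr1) (2 μg) with 10 μM ATP plus [^33P]-ATP in MOPS pH 7.0 buffer, 4% DMSO final, 60 min at 30° C. Reaction stopped with phosphoric acid, filter-captured and scintillation-counted; IC50 derived from dose-response.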

Assay [6] has as its system Kasumi-1 human acute myeloid leukemia cell with c-KIT N822K activating mutation. Description: Kasumi-1 cell proliferation assay (CellTiter-96). The assay is classed as cell-based. The note with it: Cytotoxicity, Kasumi-1 cells, 72 hours. In short, it runs like this:
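Kasumi-1 cells, seeded at 64000 cells/well and incubated overnight at 37 °C, were exposed to increasing compound concentrations for 72 h. Viability was measured by CellTiter96 AQueous One reagent (4 h) and absorbance at 490 nm.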

The subject of assay [7] is THP-1 human acute monocytic leukemia cell harboring NRAS G12D mutation. Kind of assay: THP-1 cell proliferation assay (counter screen, CellTiter-96). The assay is classed as cell-based. Particulars: Cytotoxicity, THP-1 cells (counter screen), 72 hours. In short, it runs like this: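 THP-1 cells, RTK-independent owing to NRAS G12D, seeded at 5000/well, incubated overnight at 37 °C/5% CO2, then exposed to increasing compound concentrations for 72 h. CellTiter96 AQueous One reagent added for 4 h; viability from absorbance at 490 nm.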
On the technique in general: The purpose of a counterscreen is to sort out artefacts and off-target activity.

Assay [8] has as its target CSF-1R kinase (Homo sapiens (Human), UniProt P07333). Kind of assay: CSF-1R kinase assay (AlphaScreen). The note with it: class symbol. The assay is classed as biochemical. The protocol: Inhibition of CSF-1R kinase activity by a test compound disclosed herein was estimated by AlphaScreen (PerkinElmer). […] Reactions were incubated at 30° C. for 45 min and stopped by adding 5 μL of 50 mM EDTA. Analysis of resulting product using an AlphaScreen kit, and counted with Enspire Alpha (PerkinElmer). […] The IC50 values of quinoxaline compounds of this invention against CSF-1R kinase were determined using the GraphPad Prism 5 software.
In general terms: Bead proximity is the source of the signal in Alpha formats.

Assay [9] has as its system osteoclast precursors (osteoclast differentiation). Kind of assay: Osteoclast tartrate-resistant acid phosphatase assay. The assay is classed as cell-based. Particulars: 168 h, at 1 μM treatment, 7 days, RANKL and M-CSF, read-out: inhibition activity against osteoclast differentiation. The procedure:
A serial dilution of test compound was dispensed into a 96-well black clear bottom plate. Compound was diluted by the addition of DMEM media supplemented with 10% characterized fetal bovine serum. Diluted compound was transferred to a 96-well black clear bottom plate. Three thousand osteoclast precursors (Lonza, Walkersville, Md.) were added per well in growth medium containing Receptor Activator of Nuclear Factor Kappa-beta ligand (RANKL) and M-CSF. […] At the end of the incubation period, 50 μL of supernatant from each well was transferred to a clear 96-well plate. Tartrate-resistant acid phosphatase activity in the supernatant samples was determined using an acid phosphatase assay kit (Sigma, St. Louis, Mo.). Absorbance was measured at 550 nm using a plate reader. […] The Inhibition activity against osteoclast differentiation for each compound at 1 μM treatment in duplicate was measured.

Sequence of CSF-1R kinase (P07333 20-972): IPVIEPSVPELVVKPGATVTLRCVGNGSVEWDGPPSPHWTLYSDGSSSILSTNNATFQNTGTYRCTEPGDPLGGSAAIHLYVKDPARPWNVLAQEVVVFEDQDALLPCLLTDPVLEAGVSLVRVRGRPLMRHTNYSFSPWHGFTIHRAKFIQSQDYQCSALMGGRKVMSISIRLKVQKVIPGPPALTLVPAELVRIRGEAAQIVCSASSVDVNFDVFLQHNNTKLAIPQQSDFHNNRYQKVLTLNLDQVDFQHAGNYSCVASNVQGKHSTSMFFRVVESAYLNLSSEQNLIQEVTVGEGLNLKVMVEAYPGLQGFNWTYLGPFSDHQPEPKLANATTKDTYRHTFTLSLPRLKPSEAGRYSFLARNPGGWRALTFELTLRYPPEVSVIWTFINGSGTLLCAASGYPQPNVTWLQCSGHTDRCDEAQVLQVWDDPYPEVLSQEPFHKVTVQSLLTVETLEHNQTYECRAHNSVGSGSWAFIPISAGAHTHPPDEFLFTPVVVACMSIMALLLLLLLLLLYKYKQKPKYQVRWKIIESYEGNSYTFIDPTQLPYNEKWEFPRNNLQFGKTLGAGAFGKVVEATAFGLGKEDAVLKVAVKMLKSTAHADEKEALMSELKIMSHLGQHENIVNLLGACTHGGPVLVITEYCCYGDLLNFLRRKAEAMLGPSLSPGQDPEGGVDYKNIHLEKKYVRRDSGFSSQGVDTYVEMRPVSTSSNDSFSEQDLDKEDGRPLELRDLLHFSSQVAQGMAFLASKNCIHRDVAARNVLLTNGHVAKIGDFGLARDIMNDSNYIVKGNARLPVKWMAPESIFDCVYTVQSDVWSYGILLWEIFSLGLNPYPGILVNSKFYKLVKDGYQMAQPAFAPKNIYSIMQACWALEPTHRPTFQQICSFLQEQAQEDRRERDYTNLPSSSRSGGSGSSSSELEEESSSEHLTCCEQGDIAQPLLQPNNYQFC
Sequence of FLT3 kinase (P36888 27-993): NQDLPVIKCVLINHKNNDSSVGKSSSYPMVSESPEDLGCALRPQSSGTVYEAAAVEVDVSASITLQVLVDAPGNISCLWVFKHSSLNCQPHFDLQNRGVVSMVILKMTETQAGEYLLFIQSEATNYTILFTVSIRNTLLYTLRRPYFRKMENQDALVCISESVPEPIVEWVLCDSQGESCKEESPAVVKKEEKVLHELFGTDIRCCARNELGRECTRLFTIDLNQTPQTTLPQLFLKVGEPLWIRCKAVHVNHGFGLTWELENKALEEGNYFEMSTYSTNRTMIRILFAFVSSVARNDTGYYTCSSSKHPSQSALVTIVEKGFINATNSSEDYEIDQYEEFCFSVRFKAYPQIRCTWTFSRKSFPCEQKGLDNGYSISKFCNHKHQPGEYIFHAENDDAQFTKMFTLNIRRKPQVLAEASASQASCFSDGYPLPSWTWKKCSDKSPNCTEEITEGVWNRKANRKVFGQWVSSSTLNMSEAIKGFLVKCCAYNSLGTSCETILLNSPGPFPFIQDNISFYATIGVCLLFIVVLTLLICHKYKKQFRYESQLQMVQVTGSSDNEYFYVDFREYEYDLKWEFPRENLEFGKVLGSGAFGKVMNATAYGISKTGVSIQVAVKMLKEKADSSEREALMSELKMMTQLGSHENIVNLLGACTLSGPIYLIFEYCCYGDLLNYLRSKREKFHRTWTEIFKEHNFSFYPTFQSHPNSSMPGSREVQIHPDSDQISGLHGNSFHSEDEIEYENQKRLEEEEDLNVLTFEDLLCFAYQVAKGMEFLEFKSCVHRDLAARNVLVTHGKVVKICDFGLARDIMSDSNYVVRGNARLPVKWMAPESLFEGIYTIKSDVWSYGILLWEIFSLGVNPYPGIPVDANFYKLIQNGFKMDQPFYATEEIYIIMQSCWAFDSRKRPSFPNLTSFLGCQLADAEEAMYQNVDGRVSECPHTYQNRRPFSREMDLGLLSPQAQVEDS
Sequence of PDGFRβ kinase (P09619 33-1106): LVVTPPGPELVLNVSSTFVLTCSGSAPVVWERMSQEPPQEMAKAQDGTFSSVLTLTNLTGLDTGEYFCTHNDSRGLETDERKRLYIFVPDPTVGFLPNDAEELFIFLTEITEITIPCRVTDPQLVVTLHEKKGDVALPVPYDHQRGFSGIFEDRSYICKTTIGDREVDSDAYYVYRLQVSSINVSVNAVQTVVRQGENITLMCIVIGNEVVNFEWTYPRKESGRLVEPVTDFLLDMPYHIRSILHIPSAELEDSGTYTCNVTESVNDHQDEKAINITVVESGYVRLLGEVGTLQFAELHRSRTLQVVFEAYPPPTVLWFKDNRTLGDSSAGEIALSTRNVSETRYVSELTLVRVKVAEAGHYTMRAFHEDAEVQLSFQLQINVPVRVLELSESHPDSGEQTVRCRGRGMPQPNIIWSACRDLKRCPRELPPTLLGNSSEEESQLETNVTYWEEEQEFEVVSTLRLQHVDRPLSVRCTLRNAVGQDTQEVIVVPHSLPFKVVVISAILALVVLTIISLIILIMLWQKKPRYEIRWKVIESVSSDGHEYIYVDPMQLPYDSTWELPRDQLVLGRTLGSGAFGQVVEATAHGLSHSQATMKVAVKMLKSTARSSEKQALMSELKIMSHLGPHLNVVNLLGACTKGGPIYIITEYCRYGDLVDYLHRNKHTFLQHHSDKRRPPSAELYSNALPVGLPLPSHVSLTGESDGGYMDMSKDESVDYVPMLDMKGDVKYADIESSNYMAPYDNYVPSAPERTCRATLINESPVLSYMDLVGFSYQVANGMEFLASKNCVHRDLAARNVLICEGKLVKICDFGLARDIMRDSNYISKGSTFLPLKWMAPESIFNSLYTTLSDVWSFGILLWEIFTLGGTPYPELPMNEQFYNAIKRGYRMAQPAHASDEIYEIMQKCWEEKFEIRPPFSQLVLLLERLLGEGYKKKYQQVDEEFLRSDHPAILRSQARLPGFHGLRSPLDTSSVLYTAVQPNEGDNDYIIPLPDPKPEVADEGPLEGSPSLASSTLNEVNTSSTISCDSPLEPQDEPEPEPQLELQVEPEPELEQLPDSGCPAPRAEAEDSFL
Sequence of c-KIT kinase (P10721 26-976): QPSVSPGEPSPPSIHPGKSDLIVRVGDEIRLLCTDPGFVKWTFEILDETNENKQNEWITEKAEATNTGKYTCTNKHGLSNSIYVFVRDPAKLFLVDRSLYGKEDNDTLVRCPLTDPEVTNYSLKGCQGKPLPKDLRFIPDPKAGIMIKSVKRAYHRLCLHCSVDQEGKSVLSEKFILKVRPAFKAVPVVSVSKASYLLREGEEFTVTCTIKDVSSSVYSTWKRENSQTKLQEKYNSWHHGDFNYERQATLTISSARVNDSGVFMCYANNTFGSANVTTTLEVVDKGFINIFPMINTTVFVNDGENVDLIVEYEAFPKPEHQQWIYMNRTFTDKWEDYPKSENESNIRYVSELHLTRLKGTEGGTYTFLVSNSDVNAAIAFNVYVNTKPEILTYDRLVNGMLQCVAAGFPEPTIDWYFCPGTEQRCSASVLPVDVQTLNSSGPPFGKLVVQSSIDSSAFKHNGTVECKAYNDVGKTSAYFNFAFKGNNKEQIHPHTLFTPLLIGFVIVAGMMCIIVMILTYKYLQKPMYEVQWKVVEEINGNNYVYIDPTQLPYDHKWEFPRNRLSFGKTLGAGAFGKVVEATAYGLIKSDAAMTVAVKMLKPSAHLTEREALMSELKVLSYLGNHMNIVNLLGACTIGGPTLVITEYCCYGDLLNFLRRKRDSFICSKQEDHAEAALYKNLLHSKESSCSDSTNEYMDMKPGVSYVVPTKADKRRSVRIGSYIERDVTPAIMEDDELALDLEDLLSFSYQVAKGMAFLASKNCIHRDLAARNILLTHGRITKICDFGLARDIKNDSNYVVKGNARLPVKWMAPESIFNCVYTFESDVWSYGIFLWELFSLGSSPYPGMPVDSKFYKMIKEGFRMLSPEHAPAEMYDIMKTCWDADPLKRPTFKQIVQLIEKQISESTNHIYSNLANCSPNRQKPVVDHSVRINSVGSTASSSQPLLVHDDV

The term IC50 denotes the midpoint of a concentration-inhibition curve. High values mean weaker potency, low ones greater potency. In general, inhibition refers to the relative decrease from the control value, in per cent. Turning to `COc1ccc(COc2ccc(Nc3ccc4ncc(N5CCN(CCO)CC5)nc4c3C#N)cc2OC)cc1` [Example 66, 3-(4-(2-hydroxyethyl)piperazin-1-yl)-6-((3-methoxy-4-((4-methoxybenzyl)oxy)phenyl)amino)quinoxaline-5-carbonitrile], the 50% inhibitory concentration (IC50) was under 300 nM in assay [1]; under 100 nM in assay [2]; 1000 to 10000 nM in assay [3]; 300 to 1000 nM in assay [4] (class symbol); over 1000 nM in assay [5]; under 300 nM in assay [6]. Besides, the IC50 in assay [7] is over 10000 nM; in assay [8], under 100 nM. Besides, the inhibition at 1 µM in assay [9] is over 50%.
Turning to `COc1cc(Nc2ccc3ncc(N4CCC(N(C)C)CC4)nc3c2C#N)ccc1OCc1cccc(C#N)c1` [Example 84, 6-((4-((3-cyanobenzyl)oxy)-3-methoxyphenyl)amino)-3-(4-(dimethylamino)piperidin-1-yl)quinoxaline-5-carbonitrile], the half-inhibitory concentration (IC50) was under 300 nM in [1]; under 100 nM in assay [2]; 1000 to 10000 nM in assay [3]; over 1000 nM in assay [4] (bound); over 1000 nM in [5]; 300 to 1000 nM in assay [6]. Also, the values for the 50% inhibitory concentration (IC50) in assay [7] and in [8] were 1000 to 10000 nM and under 100 nM, respectively. Moreover, in assay [9], the inhibition at 1 µM is over 50%.
For `CCOc1ccc(COc2ccc(Nc3ccc4ncc(N5CCOCC5)nc4c3C#N)cc2OC)cn1` [Example 112, 6-((4-((6-ethoxypyridin-3-yl)methoxy)-3-methoxyphenyl)amino)-3-morpholinoquinoxaline-5-carbonitrile], the half-inhibitory concentration (IC50) in assay [1] is under 300 nM; in [2], under 100 nM; in assay [3] it was 1000 to 10000 nM; in assay [4] (bound), over 1000 nM; in assay [5], over 1000 nM; in [6] it was under 300 nM. Besides, the IC50 was over 10000 nM in assay [7] and under 100 nM in assay [8]. Besides, the inhibition at 1 µM in [9] was over 50%.
As to `COc1ccc(COc2ccc(Nc3ccc4ncc(N5CCC(N(C)C)CC5)nc4c3C#N)cc2OC)cc1F` [Example 85, 3-(4-(dimethylamino)piperidin-1-yl)-6-((4-((3-fluoro-4-methoxy-benzyl)oxy)-3-methoxyphenyl)amino)quinoxaline-5-carbonitrile], the 50% inhibitory concentration (IC50) was under 300 nM in [1]; under 100 nM in [2]; 1000 to 10000 nM in assay [3]; over 1000 nM in assay [4] (bound); over 1000 nM in assay [5]; under 300 nM in [6]. Also, the values for the 50% inhibitory concentration (IC50) in assay [7] and in assay [8] were 1000 to 10000 nM and under 100 nM, respectively. For the same compound, the inhibition at 1 µM in assay [9] is over 50%.
In the case of `COc1ccc(COc2ccc(Nc3ccc4ncc(N5CCN(C)CC5)nc4c3C#N)cc2OC)cc1` [Example 31, 6-((3-methoxy-4-((4-methoxybenzyl)oxy)phenyl)amino)-3-(4-methylpiperazin-1-yl)quinoxaline-5-carbonitrile], the half-maximal inhibitory concentration (IC50) in assay [1] was under 300 nM; in [2], under 100 nM; in assay [3], 1000 to 10000 nM; in assay [4] (class symbol) it was 300 to 1000 nM; in assay [5], over 1000 nM; in assay [6], under 300 nM. Besides, the values for the IC50 in assay [7] and in assay [8] were over 10000 nM and under 100 nM, respectively. In [9], the inhibition at 1 µM was over 50%.
Turning to `COc1cc(Nc2ccc3ncc(N4CCN(C)CC4)nc3c2C#N)ccc1OCc1cccc(C#N)c1` [Example 78, 6-((4-((3-cyanobenzyl)oxy)-3-methoxyphenyl)amino)-3-(4-methylpiperazin-1-yl)quinoxaline-5-carbonitrile], the IC50 was under 300 nM in assay [1]; 100 to 300 nM in assay [2]; over 10000 nM in assay [3]; over 1000 nM in assay [4] (bound); over 1000 nM in assay [5]; 300 to 1000 nM in assay [6]. The IC50 was over 10000 nM in assay [7] and under 100 nM in assay [8]. Further, the inhibition at 1 µM in assay [9] is over 50%.
For `COc1ccc(COc2ccc(Nc3ccc4ncc(N(C)C)nc4c3C#N)cc2OC)cc1` [Example 7, 3-(dimethylamino)-6-((3-methoxy-4-((4-methoxybenzyl)oxy)phenyl)amino)quinoxaline-5-carbonitrile], the concentration for half-maximal inhibition (IC50) in assay [1] is under 300 nM; in assay [2], under 100 nM; in assay [3], over 10000 nM; in assay [4] (bound), over 1000 nM; in [5], over 1000 nM; in [6] it was under 300 nM. The results for the IC50 in assay [7] and in assay [8] were over 10000 nM and under 100 nM, respectively. For the same compound, in assay [9], the inhibition at 1 µM was over 50%.
Regarding `COCc1ccc(COc2ccc(Nc3ccc4ncc(N5CCOCC5)nc4c3C#N)cc2OC)cn1` [Example 107, 6-((3-methoxy-4-((6-(methoxymethyl)pyridin-3-yl)methoxy)phenyl)amino)-3-morpholinoquinoxaline-5-carbonitrile], the IC50 in assay [1] is under 300 nM; in assay [2] it was 100 to 300 nM; in assay [3], 1000 to 10000 nM; in [4] (bound) it was over 1000 nM; in assay [5], over 1000 nM; in [6], 300 to 1000 nM. For the same compound, the IC50 was over 10000 nM in assay [7] and under 100 nM in [8]. Further, in assay [9], the inhibition at 1 µM is over 50%.
On to `COc1cc(Nc2ccc3ncc(N4CCOCC4)nc3c2C#N)cnc1OCc1ccc(C)nc1` [Example 143, 6-((5-methoxy-6-((6-methylpyridin-3-yl)methoxy)pyridin-3-yl)amino)-3-morpholinoquinoxaline-5-carbonitrile], for which the IC50 is under 300 nM in assay [1]; 300 to 1000 nM in assay [2]; 1000 to 10000 nM in assay [3]; over 1000 nM in assay [4] (bound); over 1000 nM in assay [5]; over 10000 nM in assay [6]. In addition, the IC50 in assay [7] was over 10000 nM; in assay [8], under 100 nM. The inhibition at 1 µM in [9] is over 50%.
In the case of `COc1ccc(COc2ccc(Nc3ccc4ncc(N5CCC(N(C)C)CC5)nc4c3C#N)cc2OC)cn1` [Example 82, 3-(4-(dimethylamino)piperidin-1-yl)-6-((3-methoxy-4-((6-methoxy-pyridin-3-yl)methoxy)phenyl)amino)quinoxaline-5-carbonitrile], the IC50 in assay [1] is under 300 nM; in assay [2], 100 to 300 nM; in assay [3] it was 1000 to 10000 nM; in assay [4] (bound), over 1000 nM; in assay [5], over 1000 nM; in assay [6], under 300 nM. In addition, the IC50 in assay [7] was 1000 to 10000 nM; in assay [8], under 100 nM. Moreover, the inhibition at 1 µM in assay [9] was over 50%.
Regarding `COc1cc(Nc2ccc3ncc(N4CCOCC4)nc3c2C#N)ccc1OCc1cccc(F)c1` [Example 91, 6-((4-((3-fluorobenzyl)oxy)-3-methoxyphenyl)amino)-3-morpholinoquinoxaline-5-carbonitrile], the IC50 in [1] was 300 to 1000 nM; in [2], 100 to 300 nM; in [3], 1000 to 10000 nM; in [4] (bound) it was over 1000 nM; in [5] it was over 1000 nM; in assay [6] it was 1000 to 10000 nM. In addition, the values for the half-maximal inhibitory concentration (IC50) in assay [7] and in [8] were over 10000 nM and under 100 nM, respectively. In assay [9], the inhibition at 1 µM was over 50%.
